Assay results published in patent US10993951B2, “Fosfomycin formulation for parenteral administration” (priority 2016, dated 2021).
≈ marks a conversion by molar mass, not a printed value. Read-outs that look alike come from different tables or passages of the source.

Columns and labels:
Assay type in all cases: cell-based
[1] = system: Staphylococcus aureus ATTC 49775; assay: MIC by tube dilution in microtiter plates, stored fosfomycin solution; details: read-out: minimal inhibitory concentration (MIC)
Source text: (§1) The objective of the present investigation was to find out whether the antimicrobial activity of fosfomycin with a pH suitable for intravenous administration is maintained in a solvent suitable for intravenous use. For this, fosfomycin disodium (14.5 mmol sodium/g) and succinic acid were used to adjust the pH (0.025 grams of succinic acid per gram of fosfomycin).
(§2) A stock solution of 4 g of fosfomycin disodium and succinic acid (0.025 grams of succinic acid per gram of fosfomycin, corresponding to about 3 g of fosfomycin) in 10 ml distilled water was prepared and divided into 5 cryotubes at 2 ml each, and the solution was exposed at different temperatures as follows:
(§3) Aliquots of 2 ml of the sample were stored at −80° C., at refrigerator temperature (2-8° C.), at room temperature (20-25° C.), and at 45-65° C. until the test end. Another 2 ml of the stock solution were stored at refrigerator temperature (2-8° C.) and autoclaved before the tests at 125° C. for 30 minutes. After that, all samples were tested for their antimicrobioal activity.
(§4) To determine the antimicrobial activity of fosfomycin, the minimal inhibitory concentration (MIC) of the 4 mentioned bacteria strains was determined by a tube dilution method in microtiter plates using Mueller-Hinton broth. For the inoculation of the microtiter plates, the inoculum was adjusted to 1.5×104 germs/ml. The evaluation was made after 24 hours of incubation at 37° C.
(§5) Samples were taken, starting with 2,000 μg/ml test substance, diluted by a factor 2. Serial dilutions of 2,000 μg/ml to […] were prepared.

[2] = system: Staphylococcus hominis AG 1115; assay: as above; details: read-out: minimal inhibitory concentration (MIC)
Source text: as §1, §2, §3, §4, §5

[3] = system: tested bacteria such as Staphylococcus and Escherichia; assay: Stability studies: antimicrobial activity kept on storage; details: aqueous solution with an acid; after repeated autoclaving at 125° C. and months of storage
Source text: as §1, §2, §3
as §4, with “The evaluation was made after 24 hours of incubation at 37° C.” left out

[4] = system: Staphylococcus aureus ATTC 49775; assay: MIC by tube dilution in microtiter plates, stored fosfomycin solution; details: read-out: minimal inhibitory concentration (MIC); remark: listed apart in the source
[5] = system: Staphylococcus aureus ATTC 33592; assay: as above; details: read-out: minimal inhibitory concentration (MIC)
[6] = system: Staphylococcus hominis AG 1115; assay: as above; details: read-out: minimal inhibitory concentration (MIC); remark: listed apart in the source
[7] = system: Escherichia coli AG 1215; assay: as above; details: read-out: minimal inhibitory concentration (MIC)

For `C[C@@H]1O[C@@H]1P(=O)(O)O` [Fosfomycin, fosfomycin], the MIC ([1]; ATTC49775, 456 h, storage temp. 20-25 °C, storage period 19 days) was 15.6 µg/mL (≈ 113 µM), the MIC ([1]; ATTC49775, 456 h, storage temp. 45-65 °C, storage period 19 days) was 7.8 µg/mL (≈ 56.5 µM) and the MIC ([1]; ATTC49775, 456 h, storage temp. −80 °C, storage period 19 days) was 3.9 µg/mL (≈ 28.2 µM). It also gave an MIC ([1]; ATTC49775, storage temp. 20-25 °C, storage period 31 days) of 15.6 µg/mL (≈ 113 µM), an MIC ([1]; ATTC49775, storage temp. 45-65 °C, storage period 31 days) of 7.8 µg/mL (≈ 56.5 µM) and an MIC ([1]; ATTC49775, storage temp. −80 °C, storage period 31 days) of 3.9 µg/mL (≈ 28.2 µM). The MIC ([2]; AG1115, 125 °C (refrigerator storage, autoclaved 30 minutes before tests), storage period 27 days) was 15.6 µg/mL (≈ 113 µM), the MIC ([2]; AG1115, 125 °C (refrigerator storage, autoclaved 30 minutes before tests), storage period 31 days) was 7.8 µg/mL (≈ 56.5 µM) and the MIC ([2]; AG1115, 125 °C (refrigerator storage, autoclaved 30 minutes before tests), storage period 54 days) was 7.8 µg/mL (≈ 56.5 µM). For the same compound, the MIC ([2]; AG1115, 125 °C (refrigerator storage, autoclaved 30 minutes before tests), storage period 59 days) was 15.6 µg/mL (≈ 113 µM), the MIC ([2]; AG1115, 125 °C (refrigerator storage, autoclaved 30 minutes before tests), storage period 64 days) was 31.2 µg/mL (≈ 226 µM) and the MIC ([2]; AG1115, 125 °C (refrigerator storage, autoclaved 30 minutes before tests), storage period 92 days) was 31.2 µg/mL (≈ 226 µM). It also gave an MIC ([2]; AG1115, 648 h, storage temp. 20-25 °C, storage period 27 days) of 31.2 µg/mL (≈ 226 µM), an MIC ([2]; AG1115, 648 h, storage temp. 45-65 °C, storage period 27 days) of 15.6 µg/mL (≈ 113 µM) and an MIC ([2]; AG1115, 648 h, storage temp. −80 °C, storage period 27 days) of 7.8 µg/mL (≈ 56.5 µM). It also gave an MIC ([2]; AG1115, storage temp. 4-8 °C, storage period 31 days) of 7.8 µg/mL (≈ 56.5 µM), an MIC ([2]; AG1115, storage temp. 4-8 °C, storage period 54 days) of 7.8 µg/mL (≈ 56.5 µM) and an MIC ([2]; AG1115, storage temp. 4-8 °C, storage period 59 days) of 15.6 µg/mL (≈ 113 µM). For the same compound, the MIC ([2]; AG1115, storage temp. 20-25 °C, storage period 31 days) was 7.8 µg/mL (≈ 56.5 µM), the MIC ([2]; AG1115, storage temp. 20-25 °C, storage period 54 days) was 15.6 µg/mL (≈ 113 µM) and the MIC ([2]; AG1115, storage temp. 20-25 °C, storage period 59 days) was 7.8 µg/mL (≈ 56.5 µM). The MIC ([2]; AG1115, storage temp. 20-25 °C, storage period 64 days) was 31.2 µg/mL (≈ 226 µM), the MIC ([2]; AG1115, storage temp. 20-25 °C, storage period 92 days) was 62.5 µg/mL (≈ 453 µM) and the MIC ([2]; AG1115, storage temp. 45-65 °C, storage period 31 days) was 3.9 µg/mL (≈ 28.2 µM). For the same compound, the MIC ([2]; AG1115, storage temp. 45-65 °C, storage period 54 days) was 15.6 µg/mL (≈ 113 µM), the MIC ([2]; AG1115, storage temp. 45-65 °C, storage period 59 days) was 15.6 µg/mL (≈ 113 µM) and the MIC ([2]; AG1115, storage temp. 45-65 °C, storage period 64 days) was 15.6 µg/mL (≈ 113 µM). The MIC ([2]; AG1115, storage temp. 45-65 °C, storage period 92 days) was 62.5 µg/mL (≈ 453 µM), the MIC ([2]; AG1115, storage temp. −80 °C, storage period 31 days) was 7.8 µg/mL (≈ 56.5 µM) and the MIC ([2]; AG1115, storage temp. −80 °C, storage period 54 days) was 7.8 µg/mL (≈ 56.5 µM). For the same compound, the MIC ([2]; AG1115, storage temp. −80 °C, storage period 59 days) was 15.6 µg/mL (≈ 113 µM), the MIC ([2]; AG1115, storage temp. −80 °C, storage period 64 days) was 15.6 µg/mL (≈ 113 µM) and the MIC ([2]; AG1115, storage temp. −80 °C, storage period 92 days) was 15.6 µg/mL (≈ 113 µM). The “effectiveness against the tested bacteria after storage” value [3] was “effective”, the MIC ([4]; ATTC49775, 0 h, storage temp. 4-8 °C, storage period 0 days) was 7.8 µg/mL (≈ 56.5 µM) and the MIC ([4]; ATTC49775, 456 h, storage temp. 4-8 °C, storage period 19 days) was 3.9 µg/mL (≈ 28.2 µM). The MIC ([4]; ATTC49775, storage temp. 4-8 °C, storage period 31 days) was 3.9 µg/mL (≈ 28.2 µM), the MIC ([5]; ATTC33592, 0 h, storage temp. 4-8 °C, storage period 0 days) was 15.6 µg/mL (≈ 113 µM) and the MIC ([5]; ATTC33592, 456 h, storage temp. 4-8 °C, storage period 19 days) was 7.8 µg/mL (≈ 56.5 µM). It also gave an MIC ([5]; ATTC33592, storage temp. 4-8 °C, storage period 31 days) of 3.9 µg/mL (≈ 28.2 µM), an MIC ([6]; AG1115, 648 h, storage temp. 4-8 °C, storage period 27 days) of 15.6 µg/mL (≈ 113 µM) and an MIC ([6]; AG1115, storage temp. 4-8 °C, storage period 64 days) of 15.6 µg/mL (≈ 113 µM). For the same compound, the MIC ([6]; AG1115, storage temp. 4-8 °C, storage period 92 days) was 15.6 µg/mL (≈ 113 µM), the MIC ([7]; AG1215, 648 h, storage temp. 4-8 °C, storage period 27 days) was 62.5 µg/mL (≈ 453 µM) and the MIC ([7]; AG1215, storage temp. 4-8 °C, storage period 59 days) was 62.5 µg/mL (≈ 453 µM). The MIC ([7]; AG1215, storage temp. 4-8 °C, storage period 64 days) was 15.6 µg/mL (≈ 113 µM).
